System: bladder cancer
Experiment: Administration of Compound A to human patient suffering from bladder cancer (CT imaging)
Format: in vivo
Conditions: 450 mg orally two times per day for two months

## CC(C)(C[C@H]1CN(S(=O)(=O)c2cccc(C(F)(F)F)c2)c2cc(-c3cc(F)cc(OC(F)F)c3)ccc2O1)C(=O)O [Compound A]
  reduction in bladder cancer burden compared to burden at start of treatment: 24%

— patent US20200261463A1, “TREATMENT OF CANCER USING ARYL DIHYDRO-2H-BENZO[B][1,4]OXAZINE SULFONAMIDE COMPOUNDS” (Lycera Corporation, priority 2017, published 2020)
